The target in series [1] is T1, recombinant human transglutaminase 2 (Homo sapiens, UniProt P21980).
T1 construct: purchased Zedira T022
T1 sequence (P21980 1-687): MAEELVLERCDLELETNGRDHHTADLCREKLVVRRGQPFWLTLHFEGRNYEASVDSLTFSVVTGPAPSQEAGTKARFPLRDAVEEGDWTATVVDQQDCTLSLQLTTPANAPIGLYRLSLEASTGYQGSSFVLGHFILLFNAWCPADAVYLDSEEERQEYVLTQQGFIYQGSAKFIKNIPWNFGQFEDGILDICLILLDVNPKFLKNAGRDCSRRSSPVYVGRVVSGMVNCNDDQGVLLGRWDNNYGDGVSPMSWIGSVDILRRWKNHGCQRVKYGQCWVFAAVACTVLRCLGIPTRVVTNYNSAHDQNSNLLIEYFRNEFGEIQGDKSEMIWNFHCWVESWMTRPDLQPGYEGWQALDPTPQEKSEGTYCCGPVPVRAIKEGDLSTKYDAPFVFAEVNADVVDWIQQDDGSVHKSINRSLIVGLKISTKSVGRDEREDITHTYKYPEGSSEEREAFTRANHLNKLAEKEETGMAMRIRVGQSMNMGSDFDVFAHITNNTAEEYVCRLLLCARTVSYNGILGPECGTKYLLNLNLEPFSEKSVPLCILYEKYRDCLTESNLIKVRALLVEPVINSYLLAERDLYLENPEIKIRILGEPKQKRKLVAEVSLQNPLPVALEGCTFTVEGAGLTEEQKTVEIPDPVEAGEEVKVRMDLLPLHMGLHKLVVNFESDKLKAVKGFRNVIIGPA
In words: Transglutaminase assay (DCC-assay): incorporation of dansylcadaverine into dimethylcasein. The note with it: recombinant human TG2 10 nM; dansylcadaverine incorporation into dimethylcasein; read-out: IC50 TG2. The series is classed as biochemical. The gist of the method: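 IC50 is the inhibitor level that blocks 50% of initial activity. Activity is the fluorescence slope (λex 330, λem 500 nm) between 20 and 30 min of a 37 °C run, relative to a 2% DMSO control. The enzyme is recombinant human tissue transglutaminase, 10 nM final, tested against a 1:2 inhibitor dilution series in a pH 8.0 mix with 10 mM CaCl2, 10 mM glutathione, 16.7 µM dansylcadaverine and 4 µM N,N-dimethylcasein.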

Series [2] is described as follows: logD by shake flask method (octanol / PBS pH 7.4, HPLC). The note with it: octanol / PBS pH 7.4, shake flask. Type of series: physicochemical. The gist of the method:
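LogD obtained by HPLC measurement of how the compound distributes between PBS (pH 7.4) and octanol in a shake-flask experiment.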

Series [3] is described as follows: Caco-2 permeability assay (CacoReady kit). Type of series: in vitro ADME. The note with it: human, Caco-2, Caco-2 barrier, CacoReady kit; above 1×10^−6 cm/s classified as permeable. Summed up: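 Compounds are tested on pre-formed Caco-2 barriers supplied as a ready-to-use kit, following the kit protocol, and the Papp value is derived to estimate intestinal absorption.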

Molecules are shown by their SMILES.

The results in this text go back to patent US20240383856A1 (Zedira GmbH, priority 2021, published 2024).

As a reminder, the IC50 is the concentration that gives 50% inhibition. For orientation: logD means lipophilicity at a set pH, counting ionised and neutral species. Usually Papp stands for the rate of passage across a membrane or cell layer, normalised by area and donor concentration. Consider `NC(=O)C(=O)CC[C@H](NC(=O)c1cc2ccccc2o1)C(=O)Nc1cccn(CC(=O)NC2C3CC4CC(C3)CC2C4)c1=O` (stereo partly drawn) [II-124, (S)-2-(benzofuran-2-carboxamido)-N1-(1-(2-(2-adamantylamino)-2-oxoethyl)-2-oxo-1,2-dihydropyridin-3-yl)-5-oxohexanediamide], for which, in series [1], the IC50 lay within 40 to 400 nM. Further, in series [2], the pH-dependent lipophilicity (logD) lay within 1 to 3. The Papp in series [3] lay within 1 to 10 ×10⁻⁶ cm/s.
On to `CNC(=O)C(=O)CC[C@H](NC(=O)c1cncc([N+](=O)[O-])c1)C(=O)Nc1cccn(CC(=O)NC2C3CC4CC(C3)CC2C4)c1=O` (stereo partly drawn) [II-63, (S)-N1-(1-(2-(2-adamantylamino)-2-oxoethyl)-2-oxo-1,2-dihydropyridin-3-yl)-N6-methyl-2-(5-nitronicotinamido)-5-oxohexanediamide], for which the half-inhibitory concentration (IC50) in series [1] is less than 40 nM. In addition, the logD in series [2] is 1 to 3. Further, in series [3], the Papp was less than 1 ×10⁻⁶ cm/s.
The matching figures for `O=C(Cn1cccc(NC(=O)[C@H](CCC(=O)C(=O)NC2CCCC2)NC(=O)c2cnc3ccc(OC(F)(F)F)cc3c2O)c1=O)N[C@@H]1C[C@@H]2CC[C@H]1C2` [II-180, (S)-N1-(1-(2-((1S,2R,4R)-bicyclo[2.2.1]heptan-2-ylamino)-2-oxoethyl)-2-oxo-1,2-dihydropyridin-3-yl)-N6-cyclopentyl-2-(4-hydroxy-6-(trifluoromethoxy)quinoline-3-carboxamido)-5-oxohexanediamide]: 400 to 2500 nM, 3 to 5 and less than 1 ×10⁻⁶ cm/s.
Turning to `CNC(=O)C(=O)CC[C@H](NC(=O)c1oc2ccccc2c1C)C(=O)Nc1cccn(CC(=O)NC2C3CC4CC2CC(C)(C4)C3)c1=O` (stereo partly drawn) [II-72, (S)-N1-(1-(2-(5-methyladamantane-2-amino)-2-oxoethyl)-2-oxo-1,2-dihydropyridin-3-yl)-N6-methyl-2-(3-methylbenzofuran-2-carboxamido)-5-oxohexanediamide], in series [1], the concentration for half-maximal inhibition (IC50) was less than 40 nM. The molecule further came in with a pH-dependent lipophilicity (logD) in series [2] of 3 to 5. In series [3], this molecule registered an apparent permeability coefficient (Papp) of less than 1 ×10⁻⁶ cm/s.
The matching figures for `CNC(=O)C(=O)CC[C@H](NC(=O)[C@H]1CCNC1)C(=O)Nc1cccn(CC(=O)NC2C3CC4CC(C3)CC2C4)c1=O` (stereo partly drawn) [II-55, (S)-N1-(1-(2-(2-adamantylamino)-2-oxoethyl)-2-oxo-1,2-dihydropyridin-3-yl)-N6-methyl-5-oxo-2-((S)-pyrrolidine-3-carboxamido)hexanediamide]: 40 to 400 nM, less than 1 and less than 1 ×10⁻⁶ cm/s.
The matching figures for `CNC(=O)C(=O)CC[C@H](NC(=O)c1snnc1C1CC1)C(=O)Nc1cccn(CC(=O)NC23CC(C2)C3)c1=O` [II-201, (S)-N1-(1-(2-(bicyclo[1.1.1]pentan-1-ylamino)-2-oxoethyl)-2-oxo-1,2-dihydropyridin-3-yl)-2-(4-cyclopropyl-1,2,3-thiadiazole-5-carboxamido)-N6-methyl-5-oxohexanediamide]: 40 to 400 nM, less than 1 and less than 1 ×10⁻⁶ cm/s.
The matching figures for `CNC(=O)C(=O)CC[C@H](NC(=O)c1oc2ccccc2c1C)C(=O)Nc1cccn(CC(=O)N[C@@H]2C[C@@H]3C[C@H]([C@H]2C)C3(C)C)c1=O` [II-100, (S)-N1-methyl-5-(3-methylbenzofuran-2-carboxamido)-2-oxo-N6-(2-oxo-1-(2-oxo-2-((1R,2R,3R,5S)-2,6,6-trimethylbicyclo[3.1.1]heptan-3-ylamino)ethyl)-1,2-dihydropyridin-3-yl)hexanediamide]: 40 to 400 nM, 3 to 5 and 1 to 10 ×10⁻⁶ cm/s.
Regarding `CNC(=O)C(=O)CC[C@H](NC(=O)c1noc(C)n1)C(=O)Nc1cccn(CC(=O)NC23CC(C2)C3)c1=O` [II-197, (S)-N1-(1-(2-(bicyclo[1.1.1]pentan-1-ylamino)-2-oxoethyl)-2-oxo-1,2-dihydropyridin-3-yl)-N6-methyl-2-(5-methyl-1,2,4-oxadiazole-3-carboxamido)-5-oxohexanediamide], the IC50 in series [1] fell in the range of 400 to 2500 nM. In series [2], this molecule displayed a pH-dependent lipophilicity (logD) of less than 1. The same molecule had an apparent permeability (Papp) in series [3] of less than 1 ×10⁻⁶ cm/s.
The matching figures for `CNC(=O)C(=O)CC[C@H](NC(=O)c1cc(Br)c(Br)s1)C(=O)Nc1cccn(CC(=O)NC2C3CC4CC(C3)CC2C4)c1=O` (stereo partly drawn) [II-45, (S)-2-(4,5-dibromothiophene-2-carboxamido)-N1-(1-(2-(2-adamantylamino)-2-oxoethyl)-2-oxo-1,2-dihydropyridin-3-yl)-N6-methyl-5-oxohexanediamide]: less than 40 nM, 3 to 5 and 1 to 10 ×10⁻⁶ cm/s.
For `CNC(=O)C(=O)CC[C@H](NC(=O)c1cnnn1C)C(=O)Nc1cccn(CC(=O)NC2C3CC4CC(C3)CC2C4)c1=O` (stereo partly drawn) [II-51, (S)-N1-(1-(2-(2-adamantylamino)-2-oxoethyl)-2-oxo-1,2-dihydropyridin-3-yl)-N6-methyl-2-(1-methyl-1H-1,2,3-triazole-5-carboxamido)-5-oxohexanediamide], in series [1], the IC50 lay in the range of 40 to 400 nM. The molecule also registered a log distribution coefficient (logD) in series [2] of less than 1. Moreover, the apparent permeability (Papp) in series [3] lay in the range of 1 to 10 ×10⁻⁶ cm/s.
The matching figures for `CNC(=O)C(=O)CC[C@H](NC(=O)c1nc(Br)cs1)C(=O)Nc1cccn(CC(=O)NC2C3CC4CC(C3)CC2C4)c1=O` (stereo partly drawn) [II-39, (S)-2-(4-bromothiazole-2-carboxamido)-N1-(1-(2-(2-adamantylamino)-2-oxoethyl)-2-oxo-1,2-dihydropyridin-3-yl)-N6-methyl-5-oxohexanediamide]: 40 to 400 nM, 1 to 3 and 1 to 10 ×10⁻⁶ cm/s.
The matching figures for `CNC(=O)C(=O)CC[C@H](NC(=O)c1oc2ccccc2c1Cl)C(=O)Nc1cccn(CC(=O)NC2C3CC4CC(C3)CC2C4)c1=O` (stereo partly drawn) [II-4, (S)-2-(3-chlorobenzofuran-2-carboxamido)-N1-(1-(2-(2-adamantylamino)-2-oxoethyl)-2-oxo-1,2-dihydropyridin-3-yl)-N6-methyl-5-oxohexanediamide]: less than 40 nM, 1 to 3 and 1 to 10 ×10⁻⁶ cm/s.
Take `CNC(=O)C(=O)CC[C@H](NC(=O)c1nn[nH]n1)C(=O)Nc1cccn(CC(=O)NC2C3CC4CC(C3)CC2C4)c1=O` (stereo partly drawn) [II-52, (S)-N1-(1-(2-(2-adamantylamino)-2-oxoethyl)-2-oxo-1,2-dihydropyridin-3-yl)-N6-methyl-5-oxo-2-(2H-tetrazole-5-carboxamido)hexanediamide]: the IC50 in series [1] lay within 400 to 2500 nM. Moreover, in series [2], the log distribution coefficient (logD) was less than 1. The molecule further registered an apparent permeability coefficient (Papp) in series [3] of less than 1 ×10⁻⁶ cm/s.
The matching figures for `CNC(=O)C(=O)CC[C@H](NC(=O)c1sc(C)nc1C)C(=O)Nc1cccn(CC(=O)NC2C3CC4CC(C3)CC2C4)c1=O` (stereo partly drawn) [II-20, (S)-2-(2,4-dimethylthiazole-5-carboxamido)-N1-(1-(2-(2-adamantylamino)-2-oxoethyl)-2-oxo-1,2-dihydropyridin-3-yl)-N6-methyl-5-oxohexanediamide]: 400 to 2500 nM, 1 to 3 and 1 to 10 ×10⁻⁶ cm/s.
The matching figures for `CNC(=O)C(=O)CC[C@H](NC(=O)c1ccnn1C)C(=O)Nc1cccn(CC(=O)N[C@@H]2C[C@H]3CC[C@@H]2C3)c1=O` [II-153, (S)-N1-(1-(2-((1R,2R,4S)-bicyclo[2.2.1]heptan-2-ylamino)-2-oxoethyl)-2-oxo-1,2-dihydropyridin-3-yl)-N6-methyl-2-(1-methyl-1H-pyrazole-5-carboxamido)-5-oxohexanediamide]: 400 to 2500 nM, less than 1 and less than 1 ×10⁻⁶ cm/s.
The like results for `Cc1nc2ncccc2cc1C(=O)N[C@@H](CCC(=O)C(=O)NC1CCCCC1)C(=O)Nc1cccn(CC(=O)NC23CC(C2)C3)c1=O` [II-184, (S)-N1-(1-(2-(bicyclo[1.1.1]pentan-1-ylamino)-2-oxoethyl)-2-oxo-1,2-dihydropyridin-3-yl)-N6-cyclohexyl-2-(2-methyl-1,8-naphthyridine-3-carboxamido)-5-oxohexanediamide] were, in that order, 400 to 2500 nM, 1 to 3 and less than 1 ×10⁻⁶ cm/s.
`CNC(=O)C(=O)CC[C@H](NC(=O)c1nc(Br)sc1Br)C(=O)Nc1cccn(CC(=O)NC2C3CC4CC(C3)CC2C4)c1=O` (stereo partly drawn) [II-33, (S)-2-(2,5-dibromothiazole-4-carboxamido)-N1-(1-(2-(2-adamantylamino)-2-oxoethyl)-2-oxo-1,2-dihydropyridin-3-yl)-N6-methyl-5-oxohexanediamide]: the IC50 in series [1] lay within 40 to 400 nM. For the same molecule, the logD in series [2] was 1 to 3. In series [3], this molecule returned a Papp greater than 10 ×10⁻⁶ cm/s.
